Data as given in PubChem BioAssay AID2060509 (Molecular Pharmacology Branch, DTP, NCI, 2025).

System: 485176-168-R4-J1-PDC spheroids with HUVEC/MSC, viability
Assay: Anticancer human tumor 485176-168-R4-J1-PDC patient-derived pancreatic adenocarcinoma cell line growth inhibition [GQUAD]
Settings: for IC50: curve of first compound; for viability, T/C: stronger effect = lower value
Procedure, shortened: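 Tumor cells were grown as complex spheroids with HUVEC endothelial cells and mesenchymal stem cells as stroma. G-quadruplex stabilizers were combined with targeted agents over half-log dilutions from near the clinical Cmax, or from 10 microM.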

[1] = second compound 0.0316 µM, first compound 0.0316 µM
[2] = second compound 0.0316 µM, first compound 0.316 µM
[3] = second compound 0.1 µM, first compound 0.0316 µM
[4] = second compound 0.1 µM, first compound 0.316 µM
[5] = second compound 0.316 µM, first compound 0.0316 µM
[6] = second compound 0.316 µM, first compound 0.316 µM
[7] = second compound 1 µM, first compound 0.0316 µM
[8] = second compound 1 µM, first compound 0.316 µM
[9] = second compound 3.16 µM, first compound 0.0316 µM
[10] = second compound 3.16 µM, first compound 0.316 µM
[11] = second compound 10 µM, first compound 0.0316 µM
[12] = second compound 10 µM, first compound 0.316 µM
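Note: spheroids exposed to compounds for seven days before readout.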
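Throughout, for viability, T/C: percent viability relative to DMSO vehicle control wells as 100%.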

`COc1ncnc(C2CC2)c1-c1ncc2cnn(Cc3ccc(-c4nc(C(F)(F)F)cn4C(C)C)cc3)c2n1` + Cc1cnc(CNC(=O)c2c(=O)c3ccc(N4CCCN(C)CC4)nc3n3c2sc2ccccc23)cn1 was tested, and the IC50 (second compound 0.0316 µM) was greater than 10 µM, the IC50 (second compound 0.1 µM) was greater than 10 µM and the IC50 (second compound 0.316 µM) was greater than 10 µM. For the same compound, the IC50 (second compound 1 µM) was less than 0.0316 µM, the IC50 (second compound 3.16 µM) was less than 0.0316 µM and the IC50 (second compound 10 µM) was less than 0.0316 µM. It also gave a viability, T/C [1] of 102%, a viability, T/C (second compound 0.0316 µM, first compound 0.1 µM) of 83.6% and a viability, T/C [2] of 88.9%. For the same compound, the viability, T/C (second compound 0.0316 µM, first compound 1 µM) was 89.7%, the viability, T/C (second compound 0.0316 µM, first compound 3.16 µM) was 107% and the viability, T/C (second compound 0.0316 µM, first compound 10 µM) was 83.7%. The viability, T/C [3] was 77.3%, the viability, T/C (second compound 0.1 µM, first compound 0.1 µM) was 86.8% and the viability, T/C [4] was 76.8%. It also gave a viability, T/C (second compound 0.1 µM, first compound 1 µM) of 66.2%, a viability, T/C (second compound 0.1 µM, first compound 3.16 µM) of 67% and a viability, T/C (second compound 0.1 µM, first compound 10 µM) of 81%. The viability, T/C [5] was 54.6%, the viability, T/C (second compound 0.316 µM, first compound 0.1 µM) was 65.4% and the viability, T/C [6] was 56.4%. It also gave a viability, T/C (second compound 0.316 µM, first compound 1 µM) of 73.7%, a viability, T/C (second compound 0.316 µM, first compound 3.16 µM) of 61.6% and a viability, T/C (second compound 0.316 µM, first compound 10 µM) of 62.9%. It also gave a viability, T/C [7] of 50.4%, a viability, T/C (second compound 1 µM, first compound 0.1 µM) of 44.1% and a viability, T/C [8] of 57.7%. For the same compound, the viability, T/C (second compound 1 µM, first compound 1 µM) was 52.5%, the viability, T/C (second compound 1 µM, first compound 3.16 µM) was 58.3% and the viability, T/C (second compound 1 µM, first compound 10 µM) was 54.9%. It also gave a viability, T/C [9] of 45.1%, a viability, T/C (second compound 3.16 µM, first compound 0.1 µM) of 47.6% and a viability, T/C [10] of 47%. It also gave a viability, T/C (second compound 3.16 µM, first compound 1 µM) of 40.4%, a viability, T/C (second compound 3.16 µM, first compound 3.16 µM) of 43.8% and a viability, T/C (second compound 3.16 µM, first compound 10 µM) of 47%. It also gave a viability, T/C [11] of 36.1%, a viability, T/C (second compound 10 µM, first compound 0.1 µM) of 47.7% and a viability, T/C [12] of 40.3%. It also gave a viability, T/C (second compound 10 µM, first compound 1 µM) of 34.4%, a viability, T/C (second compound 10 µM, first compound 3.16 µM) of 40.5% and a viability, T/C (second compound 10 µM, first compound 10 µM) of 39.6%.

`Cc1[nH]c2ccccc2c1CCNCc1ccc(/C=C/C(=O)NO)cc1` + Cc1cnc(CNC(=O)c2c(=O)c3ccc(N4CCCN(C)CC4)nc3n3c2sc2ccccc23)cn1 was tested, and the IC50 (second compound 0.0316 µM) was 0.094 µM, the IC50 (second compound 0.1 µM) was 0.0392 µM and the IC50 (second compound 0.316 µM) was 0.011 µM. It also gave an IC50 (second compound 1 µM) of less than 0.000999 µM, an IC50 (second compound 3.16 µM) of less than 0.000999 µM and an IC50 (second compound 10 µM) of less than 0.000999 µM. It also gave a viability, T/C (second compound 0.0316 µM, first compound 0.000999 µM) of 99.4%, a viability, T/C (second compound 0.0316 µM, first compound 0.00316 µM) of 74.4% and a viability, T/C (second compound 0.0316 µM, first compound 0.00999 µM) of 85.6%. The viability, T/C [1] was 60.5%, the viability, T/C (second compound 0.0316 µM, first compound 0.0999 µM) was 57.5% and the viability, T/C [2] was 12.1%. It also gave a viability, T/C (second compound 0.1 µM, first compound 0.000999 µM) of 74.5%, a viability, T/C (second compound 0.1 µM, first compound 0.00316 µM) of 89.6% and a viability, T/C (second compound 0.1 µM, first compound 0.00999 µM) of 49.4%. The viability, T/C [3] was 51.7%, the viability, T/C (second compound 0.1 µM, first compound 0.0999 µM) was 44.3% and the viability, T/C [4] was 9.46%. It also gave a viability, T/C (second compound 0.316 µM, first compound 0.000999 µM) of 63.3%, a viability, T/C (second compound 0.316 µM, first compound 0.00316 µM) of 59.6% and a viability, T/C (second compound 0.316 µM, first compound 0.00999 µM) of 53.5%. It also gave a viability, T/C [5] of 35.3%, a viability, T/C (second compound 0.316 µM, first compound 0.0999 µM) of 27.2% and a viability, T/C [6] of 6.34%. It also gave a viability, T/C (second compound 1 µM, first compound 0.000999 µM) of 44.6%, a viability, T/C (second compound 1 µM, first compound 0.00316 µM) of 52.6% and a viability, T/C (second compound 1 µM, first compound 0.00999 µM) of 45.4%. For the same compound, the viability, T/C [7] was 30.7%, the viability, T/C (second compound 1 µM, first compound 0.0999 µM) was 23.8% and the viability, T/C [8] was 0.94%. For the same compound, the viability, T/C (second compound 3.16 µM, first compound 0.000999 µM) was 47.2%, the viability, T/C (second compound 3.16 µM, first compound 0.00316 µM) was 39.2% and the viability, T/C (second compound 3.16 µM, first compound 0.00999 µM) was 45%. The viability, T/C [9] was 33.1%, the viability, T/C (second compound 3.16 µM, first compound 0.0999 µM) was 14% and the viability, T/C [10] was 0.27%. The viability, T/C (second compound 10 µM, first compound 0.000999 µM) was 36.2%, the viability, T/C (second compound 10 µM, first compound 0.00316 µM) was 37.5% and the viability, T/C (second compound 10 µM, first compound 0.00999 µM) was 32.5%. The viability, T/C [11] was 26.5%, the viability, T/C (second compound 10 µM, first compound 0.0999 µM) was 11.1% and the viability, T/C [12] was 0.69%.
